{
  "source": "patent US5719132A",
  "about": "“Compositions and methods of treating HIV with d4T, 5-fluorouracil/tegafur, and uracil” (priority 1996, dated 1998)",
  "key": {"[1]": {"system": "clinical HIV-1 isolate JEW", "test": "anti-HIV activity (p24 production) in PHA-stimulated PBMC, clinical isolate JEW", "assay_type": "cell-based", "settings": "for EC50: Human immunodeficiency virus 1, PBMC, mean of three experiments; for Fold Enhancement (ddI anti-HIV activity): Table 2; for Fold Enhancement (d4T anti-HIV activity): Table 1", "source_text": ".cndot.\"a\" refers to the EC50 data as representing the mean values from three experiments, with duplicate determinations in each experiment.\nVirus--A clinical HIV-1 isolate, JEW, was titrated with a infectivity assay [Johnson, V. A. and R. E. Byington. 1990. Infectivity assay, p. 71-76. in A. Aldovini and B. D. Walker (ed.), Techniques in HIV Research. Stockton Press, New York], and used in our experiments.\nChemicals--d4T was supplied by Bristol-Myers Squibb Company. 5-Fluorouracil(5-FU) was purchased from Sigma.\n1. PBMC were infected by the clinical isolate JEW at a multiplicity of infection (MOI) of 0.001 at 37° C. for one hour, and then resuspended in RPMI 1640 medium (Gibco, Gaithersburg, Md.) containing 20% fetal bovine serum (FBS, Sigma), 1 ng/ml IL-2 and 2 mM L-glutamine (Gibco) at a concentration of 4×10^6 cells/ml.\n2. d4T (2 μM) or ddI (40 μM) was serially diluted 1:3 into RPMI 1640 medium with a final volume of 100 μl/well in 96-well plates, and 50 μl of 2.0 μM, 0.8 μM and 0 μM 5-FU were then added to each well.\n3. 50 μl of 4×10^6 / ml infected PBMC were added to each well in these plates to get a final 1×10^6 cells/ml, and incubated at 37° C.\n4. Half media (100 μl) from each well were removed and replaced with fresh medium containing same concentrations of drug at day 3 or 4.\n5. Samples were collected at day 7 and the p24 levels were quantitated using a HIV p24 ELISA kit (Dupont, Boston, Mass.)."}, "[2]": {"system": "human immunodeficiency virus (HIV)", "settings": "cited from earlier work"}, "clinical HIV isolate OLR": {"system": "clinical HIV isolate OLR", "test": "anti-HIV activity in PBMC, clinical isolate OLR", "assay_type": "cell-based", "settings": "with 0.1 μM 5-FU", "description": "The 50% cytotoxicity concentration of 5-FU in PHA--PBMC is approximately 9 μM (i.e. micromolar) as determined by trypan blue staining."}, "[3]": {"system": "HIV-1 reverse transcriptase", "settings": "in vitro; cited from earlier work"}, "[4]": {"settings": "clinical studies; cited from earlier work"}, "HIV [5]": {"system": "HIV", "settings": "cited from earlier work"}, "[6]": {"settings": "cited from earlier work"}, "HIV [7]": {"system": "HIV", "settings": "20 patients treated for up to 24 months; cited from earlier work"}, "HIV [8]": {"system": "HIV", "settings": "lowering of endogenous dATP; cited from earlier work"}, "[9]": {"system": "degradation of 5-fluorouracil", "settings": "in vitro; cited from earlier work"}, "[10]": {"system": "thymidylate synthetase (TS)", "settings": "cited from earlier work"}, "[11]": {"settings": "in vivo; cited from earlier work"}, "in vitro": {"test": "in vitro", "settings": "human, pha-stimulated pbmc", "description": "(§1) Cells--Peripheral blood mononuclear cells (PBMC) from normal individuals were prepared by Ficoll-Hypaque gradient centrifugation of venous blood with citrate as an anticoagulant and stimulated with phytoagglutinin (PHA--P, 4 μg/ml, Sigma Chemical, St. Louis, Mo.) and interleukin-2 (IL-2, 1 ng/ml, Upstate Biotechnology Inc., Lake Placid, N.Y.) for three days.\n(§2) To determine the cytotoxicity of 5-FU, uninfected PBMC were incubated with a series of concentrations of 5-FU (i.e., 0.04, 0.16, 0.63, 2.5 and 10 μM). To determine whether 5-FU can affect the cytotoxicity of d4T, uninfected PBMC were incubated with a series of concentrations of d4T (i.e., 0.8, 3.1, 12.5, 50 and 200 μM) containing 0.02 μM of 5-FU. This was repeated with d4T using 5-FU concentrations of 0.1 μM and 0.5 μM, respectively. Cell viability was monitored by trypan blue exclusion assay. Results were expressed as a percentage of living cells in drug testing wells compared to those in untreated control wells. The 50% cytotoxic concentration (CC50) was calculated as the concentration of drugs that decreased the percentage of living cells in drug-treated wells to 50% of those in untreated wells."}, "PHA-PBMC": {"system": "PHA-PBMC", "test": "cytotoxicity in PBMC by trypan blue exclusion", "description": "as §1, §2"}},
  "note": "Read-outs that look alike come from different tables or passages of the source.",
  "data": [
    {"compound": "OC[C@@H]1CC[C@H](n2cnc3c(O)ncnc32)O1", "note": "[ddI, 2',3'-dideoxyinosine]", "values": [
      {"measurement": "EC50", "setting": "[1]; PHA-stimulated PBMC, isolate JEW, 5-FU 0 μM, read-out: EC50 of ddI", "value": "100 ± 32", "unit": "nM"},
      {"measurement": "EC50", "setting": "[1]; PHA-stimulated PBMC, isolate JEW, with 5-FU 0.2 μM, read-out: EC50 of ddI", "value": "170 ± 2", "unit": "nM"},
      {"measurement": "Fold Enhancement (ddI anti-HIV activity)", "setting": "[1]; with 5-FU 0.2 μM", "value": 0.6, "unit": "X"},
      {"measurement": "Fold Enhancement (ddI anti-HIV activity)", "setting": "[1]; with 5-FU 0.5 μM", "value": 0.7, "unit": "X"},
      {"measurement": "antiviral activity against HIV", "setting": "[2]", "value": "demonstrated antiviral activity"}
    ]},
    {"compound": "Nc1ccn([C@H]2C=C[C@@H](CO)O2)c(=O)n1", "note": "[d4C, 2',3'-dideoxycytidin-2'-ene]", "values": [
      {"measurement": "antiviral activity against HIV", "setting": "[2]", "value": "demonstrated antiviral activity"}
    ]},
    {"compound": "Cc1cn([C@H]2C=C[C@@H](CO)O2)c(=O)[nH]c1=O", "note": "[d4T, 2',3'-didehydro-3'-deoxythymidine]", "values": [
      {"measurement": "EC50", "setting": "[1]; read-out: EC50 of d4T, PHA-stimulated PBMC, isolate JEW, 5-FU 0 μM", "value": "98 ± 42", "unit": "nM"},
      {"measurement": "EC50", "setting": "[1]; read-out: EC50 of d4T, PHA-stimulated PBMC, isolate JEW, with 5-FU 0.2 μM", "value": "92 ± 39", "unit": "nM"},
      {"measurement": "EC50", "setting": "[1]; read-out: EC50 of d4T, PHA-stimulated PBMC, isolate JEW, with 5-FU 0.5 μM", "value": "27 ± 15", "unit": "nM"},
      {"measurement": "fold enhancement of the anti-HIV activity of d4T", "setting": "[1]; with 0.5 μM 5-FU, isolate JEW", "value": "≤ 4", "unit": "fold"},
      {"measurement": "Fold Enhancement (d4T anti-HIV activity)", "setting": "[1]; with 5-FU 0.2 μM", "value": 1, "unit": "X"},
      {"measurement": "Fold Enhancement (d4T anti-HIV activity)", "setting": "[1]; with 5-FU 0.5 μM", "value": 4, "unit": "X"},
      {"measurement": "fold enhancement of d4T activity", "setting": "clinical HIV isolate OLR", "value": 4.5, "unit": "fold"},
      {"measurement": "inhibition of HIV-1 reverse transcriptase", "setting": "[3]", "value": "potent inhibitor"},
      {"measurement": "oral bioavailability", "setting": "[4]", "value": "greater than 80%"},
      {"measurement": "time until CD4 counts and serum p24 levels return to baseline", "setting": "HIV [5]; duration of anti-viral responses in patients", "value": "approximately 6 months"},
      {"measurement": "CD4 counts", "setting": "HIV [5]; treated patients", "value": "increases in CD4 counts"},
      {"measurement": "serum p24 levels and infectious HIV titers in PBMC", "setting": "HIV [5]; treated patients", "value": "decreases in both serum p24 levels and infectious HIV titers"},
      {"measurement": "antiviral activity against HIV", "setting": "[2]", "value": "demonstrated antiviral activity"},
      {"measurement": "dose-limiting toxicity", "setting": "[6]; clinical studies", "value": "peripheral neuropathy"},
      {"measurement": "undesirable side effects", "setting": "[6]; human, in vivo", "value": "peripheral neuropathy"},
      {"measurement": "resistant viruses isolated", "setting": "HIV [7]", "value": "no resistant viruses can be isolated"}
    ]},
    {"compound": "NC(=O)NO", "note": "[hydroxyurea]", "values": [
      {"measurement": "effect of hydroxyurea on anti-HIV activity of ddI", "setting": "HIV [8]", "value": "enhanced anti-HIV activity of ddI"}
    ]},
    {"compound": "Nc1ccn([C@H]2CC[C@@H](CO)O2)c(=O)n1", "note": "[ddC, 2',3'-dideoxycytidine]", "values": [
      {"measurement": "antiviral activity against HIV", "setting": "[2]", "value": "demonstrated antiviral activity"}
    ]},
    {"compound": "Nc1ncnc2c1ncn2[C@H]1CC[C@@H](CO)O1", "note": "[ddA, 2',3'-dideoxyadenosine]", "values": [
      {"measurement": "antiviral activity against HIV", "setting": "[2]", "value": "demonstrated antiviral activity"}
    ]},
    {"compound": "O=c1cc[nH]c(=O)[nH]1", "note": "[uracil]", "values": [
      {"measurement": "inhibition of degradation of 5-fluorouracil", "setting": "[9]", "value": "strongly inhibits the degradation of 5-fluorouracil"}
    ]},
    {"compound": "O=c1[nH]cc(F)c(=O)[nH]1", "note": "[5-FU, 5-fluorouracil]", "values": [
      {"measurement": "potentiating effect on the anti-HIV activity of ddI", "setting": "[1]; up to 0.5 μM 5-FU, PBMC", "value": "no potentiating effect"},
      {"measurement": "antiviral activity alone", "setting": "[1]; up to 0.5 μM, PHA-PBMC acutely infected by isolate JEW", "value": "no antiviral activity"},
      {"measurement": "TS inhibition", "setting": "[10]", "value": "effective TS inhibitor"},
      {"measurement": "half-life", "setting": "[11]", "value": "very short half-life"},
      {"measurement": "CC50", "setting": "in vitro", "value": "~9000", "unit": "nM"},
      {"measurement": "toxicity to PBMC", "setting": "PHA-PBMC; up to 0.5 μM", "value": "non-toxic"},
      {"measurement": "potentiating effect on d4T cytotoxicity", "setting": "PHA-PBMC; up to 0.5 μM 5-FU, PBMC", "value": "no potentiating effect"}
    ]}
  ]
}
